# Data published in patent US20210070730A1, “H2S-BASED THERAPEUTIC AGENTS FOR THE TREATMENT OF NEURODEGENERATIVE DISEASES” (INTERNATIONAL SOCIETY FOR DRUG DEVELOPMENT S.R.L., priority 2017, published 2021).
# Read-outs that look alike come from different tables or passages of the source. Marks after values point to notes of the source that are not given here.
# How the values were obtained:
# [1] = Amperometric determination of H2S release; assay type: physicochemical; conditions: assay buffer, absence or presence of L-cysteine
# Method: FIG. 1: Curves describe the increase of H2S concentration, with respect to time, following the incubation of GYY 4137, the H2S-prodrug MT66 in the assay buffer, in the absence (white symbol) or in the presence of L-cysteine (black symbol) or glutathione (black triangles). H2S was recorded by amperometry; the vertical bars indicate the SEM.
# Amperometric Determination of H2S: The characterization of the H2S-generating properties of the new compounds was carried out by amperometric approaches through an Apollo-4000 Free Radical Analyzer (WPI) detector and H2S-selective minielectrodes. The procedure has been recently reported by us.
# The H2S-releasing properties were evaluated both in the absence or in the presence of an organic thiol such as L-cysteine.
# [2] = test system: Human neuronal-like cells; assay: Neuroprotection in LPS/TNF-α challenged neuronal-like cells (MTS assay); assay type: cell-based; conditions: 10 μM pre-treatment 24 or 72 h, then 50 μg/ml LPS and 50 ng/ml TNF-α 16 h
# Method: FIG. 2: Neuroprotective effects. Human neuronal-like cells were treated with medium alone (CONTROL) or with the compounds (10 μM) for 24 h (light grey) or 72 h(dark grey); after drug removal, cells were incubated with 50 μg/ml LPS and 50 ng/ml TNF-α for an additional 16 h. At the end of treatment, cell proliferation was measured by MTS assay. The data are expressed as percentages relative to untreated cells (control), which were set at 100%, and represent the mean±SEM of three independent experiments, each performed in triplicate. Statistical significance was determined using a one-way ANOVA-Tukey HSD post hoc test: *P<0.05, ***P<0.001 vs. control; ##P<0.01, ###P<0.001 vs. cells treated with LPS-TNF-α.
# Cell proliferation/viability assays: Following incubation time, cell viability was determined using the MTS assay according to the manufacturer's instruction. […] The absorbance of formazan at […] was measured in a colorimetric assay with an automated plate reader. The results were calculated by subtracting the mean background from the values obtained from each test condition, and are expressed as the percentage of the control (untreated cells).
# Evaluation of neuroprotective effects. […] The effects of H2S prodrug under physiological conditions and under inflammatory stress exposure were assessed by measuring cellular viability.
# [3] = test system: Aβ(1-40) self-induced aggregation; assay: Thioflavin T fluorescence assay of Aβ aggregation; assay type: cell-based; conditions: 10 μM pre-treatment 24 h, ThT fluorescence
# Method: The Thioflavin T fluorescence assay. Thioflavin T (ThT) dye fluorescence was used to quantify the formation and inhibition of amyloid oligomers in the presence of anti-amyloidogenic compounds. The ThT stock solution was prepared by adding 8 mg ThT to 10 mL phosphate buffer (10 mM phosphate, 150 mM NaCl, pH 7.0) and filter through a 0.2 μm syringe filter. This stock solution should be stored in the dark and is stable for about one week. On the day of the analysis, the stock solution was diluted into PBS to obtain the concentration of 10 μM. The Aβ1-42 oligomers were prepared by diluting the stock solution in PBS and the dilution was shaking for 48 hours at 37° C. The cells were seeded in black 96-multiwell plate (3000 c/w) and treated with the compound MT66 and reference drug (10 μM) for 24 h. Following incubation time, cells were washed and incubated with Aβ1-42 oligomers for 24 h. After this time, 200 μl of ThT 10 μM were added to each well in the dark. The ThT fluorescence intensity of each sample was recorded every 5 min using a spectrophotometer by excitation at 355 nm and emission 535 nm.
# Inhibition of Aβ(1-40) self-induced aggregation. The new compound was also tested to evaluate their ability to inhibit the Aβ(1-40) self-induced aggregation.
# Rat microglia cells = assay: Microglia protection from Aβ(1-42) induced injury (MTS assay); assay type: cell-based; conditions: 10 μM pre-treatment 24 h, then Aβ1-42 24 h
# Method: FIG. 7. Rat microglia cells were pre-treated with the compounds (10 μM) for 24 h. After washing, the cells were incubated with Aβ1-42 for 24 h. At the end of treatments, cell proliferation was measured by MTS assay. The data are expressed as percentages relative to untreated cells (control), which were set at 100%, and represent the mean±SEM of three independent experiments, each performed in triplicate. Statistical significance was determined using a one-way ANOVA followed by a Bonferroni post-test: *p<0.05 vs control; #p<0.05 vs cells treated with Aβ1-42.
# Cell proliferation/viability assays on rat microglia cells. Rat microglia cells were isolated from mixed cell culture obtained from Sprague-Dawley rat cortex, by gentle physical shaking, as described. After isolation, cells were seeded into 96 well-plated with fresh culture media and pretreated with MT66 or native drug (10 μM) for 24 h; before washing and incubation with Aβ1-42 for 24 h. Following incubation time, cell viability was determined using the MTS assay. The absorbance of formazan was measured at […]. The results were calculated by subtracting the mean background from the values obtained from each test condition and were expressed as the percentage of the control (untreated cells).
# Microglia protection from Aβ(1-42) induced injury. Microglia, together with astrocytes, forms the main active immune defense of the CNS. […]
# [4] = test system: Human neuronal-like cells; assay: ROS production in LPS/TNF-α challenged neuronal-like cells (DCFH2-DA); assay type: cell-based; conditions: 10 μM pre-treatment 24 h, then LPS and TNF-α 16 h
# Method: FIG. 3. Effects induced on ROS production. Human neuronal-like cells were treated with medium alone (CONTROL) or the compound (10 μM) for 24 h; after drug removal, cells were incubated with 50 μg/ml LPS and 50 ng/ml TNF-α for an additional 16 h. At the end of treatment, ROS production was measured using the fluorogenic probe DCFH2-DA. The data are expressed as percentages relative to untreated cells (control), which were set at 100%, and represent the mean±SEM of two independent experiments, each performed in triplicate. Statistical significance was determined using a one-way ANOVA-Tukey HSD post hoc test: ***P<0.001 vs. control; ###P<0.001 vs. cells treated with LPS-TNF-α.
# Mitochondria ROS generation: The generation of ROS was assessed by the fluorogenic probe DCFH2-DA (Molecular Probes, Invitrogen) in Neuronal-like cells, differentiated from H9-derived NSCs.). […] This nonfluorescent molecule is readily converted to a green-fluorescent form […] when the acetate group is removed by intracellular esterases and an oxidation by ROS occurs within the cell. […] Fluorescence increase was estimated in a plate reader at 485 nm (excitation) and 520 nm (emission) (Wallac, Victor 2, 1420 multilabel counter, PerkinElmer). The fluorescence values were normalized between samples for cell number content and assessed by a crystal violet cell staining assay. […]
# NMDAR = assay: Displacement of specific [3H]MK-801 binding in rat cortex membranes
# Method: [^3H]MK-801 Binding Assay. Crude synaptic membranes were prepared from the cerebral cortex of Sprague-Dawley rats. The pellets were stored at −80° C. for at least 24 h, and washed three more times with Tris-HEPES buffer (Tris 4.5 mM, HEPES 5 mM, pH 7.4) to remove the endogenous amino acids before the binding assay. In the binding assay, 50 μL of membrane preparation (40-50 μg protein), and 10 μL of compound were mixed at 25° C. in the presence of […] L-glutamate (10 μM) and 50 μL of glycine (10 μM). Then, 50 μl of [^3H]MK-801 (final concentration 3 nM) were added to the preparation. Tris-HEPES buffer was added to a final volume of 0.5 mL. Following incubation time of 2 h at 25° C., binding was terminated by filtration […]. Radioactivity was measured using a PerkinElmer liquid scintillation counter. Nonspecific binding was determined in the presence of unlabeled 100 μM MK-801. […] For compound activity determination, aliquots of membrane pellets were incubated with different ligand concentrations of MT66 and reference drug (10 nM-10 μM) in the absence of presence of 4 mM Cysteine for 30 min, and then incubated with 3 nM [^3H]MK-801 for 2 h at 25° C. Samples were then filtered, and the radioactivity was counted.
# Displacement of specific [^3H]MK-801 binding in rat cortex membranes in the absence or presence of cysteine (Cys). MT66 was tested to assess its abilities to inhibit native-target activity (i.e. NMDAR). Binding to specific receptors (such as NMDAR) has been assessed using the assay based on the displacement of [^3H]MK-801 [19]. The evaluation has been performed in the presence and in absence of Cys.
# U87MG cells = assay: Western blot of autophagy markers in U87MG cells; assay type: cell-based, human; conditions: 10 μM; for LC3II expression (LC3II/LC3I ratio) / p62 expression / p-mTOR expression (p-mTOR/mTOR ratio): 4 h; for LC3II expression: 24 h
# Method: FIG. 6. Western blot quantification of LC3II/LC3I ratio, p62, mTOR and Akt as hallmarks of the degree of ATG activation. […] (D) Western blot quantification of pAkt/Akt ratio in U87MG cells. Results represent mean±SEM of three different gels. *P<0.05, **P<0.01, ***P<0.001 versus vehicle treated cells (Control).
# Western blot analysis. The human U-87MG cells were seeded in 6-well plates in a final volume of 2 ml/well at a density of 1×10^6/well and grown to 80% of confluence with standard medium (DMEM-High Glucose). Cells were treated with vehicle (0.1% DMSO) or test compounds (i.e. 10 μM Memantine or Memit and (1 μM) Rapamycin and incubated at 37° C. for 4 and 24 h. Treated cells were washed twice with PBS and lysed in Tris-buffered saline buffer-1% Triton-X100; NaCl 150 mM; Tris-HCl 20 mM; EDTA 1 mM; EGTA 1 mM; NaF 20 mM; Na4P2O7 25 mM; Na3VO4 1 mM; PMSF 1 mM; 8 μ/ml protein cocktail inhibitors (Sigma-Aldrich, Milan, Italy). Proteins (30-40 μg) were separated on Criterion TGX™ gel (4-20%) and transferred on Immuno-PVDF membrane (Bio-Rad, Milan, Italy) for 1 h. Blots were incubated for 12 h with diluted primary antibody [1:1000, LC3A/B; p62; mTOR, p-mTOR; Akt, p-Akt(Ser 473); β-actin, Cell Signaling] in 5% w/v BSA, 1× TBS and 0.1% Tween 20 at 4° C. under gentle shaking. Then, blots were washed three times for 10 min with 1× TBS, 0.1% Tween 20 and incubated for 1 h with secondary antibody (peroxidase-coupled anti rabbit in 1× TBS, 0.1% Tween 20). […] Band densitometric analysis was performed using Image Lab Software (Bio-Rad, Milan, Italy).
# Evaluation of proautophagic activity: Expression of protein LC3-II, p62, and m-TOR, indicators of autophagy, were detected by western blotting, using Rapamycin as a positive control. In U87MG cell lines.
# [5] = presence of 4 mM cysteine, 30 min preincubation, read-out: Ki, nM (+Cys 4 mM, 30 min)
SMILES,H2S-releasing properties [1],cell proliferation/viability after inflammatory insult [2],Aβ(1-40) self-induced aggregation [3],cell proliferation after Aβ1-42 oligomers (Rat microglia cells),ROS accumulation under inflammatory conditions [4],"Percentage of inhibition of specific [3H]MK-801 binding (−Cys) (NMDAR; absence of cysteine, concentration not given) [% ^b]",Ki (NMDAR; [5]) [nM],LC3II expression (LC3II/LC3I ratio) (U87MG cells),p62 expression (U87MG cells),p-mTOR expression (p-mTOR/mTOR ratio) (U87MG cells),LC3II expression (U87MG cells),"Ki (NMDAR; absence of cysteine, 3 nM [3H]MK-801, rat cortex membranes, read-out: Ki, nM (−Cys)) [nM]","Kd (NMDAR; rat cortex membranes, read-out: dissociation constant (Kd) of [3H]MK-801) [nM]"
"C1COCCN1.COc1ccc(P(=S)(S)N2CCOCC2)cc1 (centres unmarked) [GYY4137, reference compound]",slow H2S-releasing,–,–,–,–,–,–,–,–,–,–,–,–
CC12CC3CC(C)(C1)CC(N=C=S)(C3)C2 [MT66],slow and L-cysteine-dependent H2S-releasing mechanism,exhibited neuroprotective effects during inflammation,induces a reduction,completely restore cell proliferation,almost completely counteracted inflammatory-mediated effects,28.0,458 ± 77.7,significant up-regulation,decreased expressions,decreased expressions,remained almost unchanged,–,–
"CC12CC3CC(C)(C1)CC(N)(C3)C2 [Memantine, reference compound]",–,–,–,completely restore cell proliferation,–,–,329 ± 10.9,significant up-regulation,decreased expressions,decreased expressions,remained almost unchanged,955 ± 74.2,–
CC12NC(Cc3ccccc31)c1ccccc12 (centres unmarked) [[^3H]MK-801],–,–,–,–,–,–,–,–,–,–,–,–,4
